Measured values: the kinase profiling compilation of Christmann-Franck et al. (2016)

How the values were obtained:
Experiment in all cases: radiometric filter-binding kinase assay, Kinase HotSpot
Settings in all cases: compound 0.5 µM; ATP 10 µM
EPHA5 (human) = EPHA5 (human) (UniProt P54756)
MARK3 (human) = MARK3 (human) (UniProt P27448)
CDK4 CCND3 (human) = CDK4 CCND3 (human) (UniProt P30281+P11802)
PRKCI (human) = PRKCI (human) (UniProt P41743)
MAP3K10 (human) = MAP3K10 (human) (UniProt Q02779)
CDK5 CDK5R1 p35 (human) = CDK5 CDK5R1 p35 (human) (UniProt Q00535+Q15078)
PASK (human) = PASK (human) (UniProt Q96RG2)
AURKB (human) = AURKB (human) (UniProt Q96GD4)
RPS6KB2 (human) = RPS6KB2 (human) (UniProt Q9UBS0)
GSK3B (human) = GSK3B (human) (UniProt P49841)
TSSK1B (human) = TSSK1B (human) (UniProt Q9BXA7)
MAP3K11 (human) = MAP3K11 (human) (UniProt Q16584)
CSNK2A2 (human) = CSNK2A2 (human) (UniProt P19784)
STK3 (human) = STK3 (human) (UniProt Q13188)
CAMK1D (human) = CAMK1D (human) (UniProt Q8IU85)
MAPKAPK2 (human) = MAPKAPK2 (human) (UniProt P49137)
MAPK10 (human) = MAPK10 (human) (UniProt P53779)
RPS6KA4 KD2 (human) = RPS6KA4 KD2 (human) (UniProt O75676)
TEC (human) = TEC (human) (UniProt P42680)
ROS1 (human) = ROS1 (human) (UniProt P08922)
CLK1 (human) = CLK1 (human) (UniProt P49759)
MAP3K2 (human) = MAP3K2 (human) (UniProt Q9Y2U5)
PRKCG (human) = PRKCG (human) (UniProt P05129)
PRKCZ (human) = PRKCZ (human) (UniProt Q05513)
PHKG2 (human) = PHKG2 (human) (UniProt P15735)
EGFR (human) = EGFR (human) (UniProt P00533)
MAP4K4 (human) = MAP4K4 (human) (UniProt O95819)
STK25 (human) = STK25 (human) (UniProt O00506)
ABL1 (human) = ABL1 (human) (UniProt P00519)
EPHA7 (human) = EPHA7 (human) (UniProt Q15375)
MAP3K8 (human) = MAP3K8 (human) (UniProt P41279)
MAP3K9 (human) = MAP3K9 (human) (UniProt P80192)
ULK2 (human) = ULK2 (human) (UniProt Q8IYT8)
MAP2K2 (human) = MAP2K2 (human) (UniProt P36507)
EPHB2 (human) = EPHB2 (human) (UniProt P29323)
HIPK4 (human) = HIPK4 (human) (UniProt Q8NE63)
LTK (human) = LTK (human) (UniProt P29376)
TAOK2 (human) = TAOK2 (human) (UniProt Q9UL54)
ITK (human) = ITK (human) (UniProt Q08881)
PNCK (human) = PNCK (human) (UniProt Q6P2M8)
PKN2 (human) = PKN2 (human) (UniProt Q16513)
ACVR1B (human) = ACVR1B (human) (UniProt P36896)

Chain of ITK (human) (Q08881 whole entry, looked up): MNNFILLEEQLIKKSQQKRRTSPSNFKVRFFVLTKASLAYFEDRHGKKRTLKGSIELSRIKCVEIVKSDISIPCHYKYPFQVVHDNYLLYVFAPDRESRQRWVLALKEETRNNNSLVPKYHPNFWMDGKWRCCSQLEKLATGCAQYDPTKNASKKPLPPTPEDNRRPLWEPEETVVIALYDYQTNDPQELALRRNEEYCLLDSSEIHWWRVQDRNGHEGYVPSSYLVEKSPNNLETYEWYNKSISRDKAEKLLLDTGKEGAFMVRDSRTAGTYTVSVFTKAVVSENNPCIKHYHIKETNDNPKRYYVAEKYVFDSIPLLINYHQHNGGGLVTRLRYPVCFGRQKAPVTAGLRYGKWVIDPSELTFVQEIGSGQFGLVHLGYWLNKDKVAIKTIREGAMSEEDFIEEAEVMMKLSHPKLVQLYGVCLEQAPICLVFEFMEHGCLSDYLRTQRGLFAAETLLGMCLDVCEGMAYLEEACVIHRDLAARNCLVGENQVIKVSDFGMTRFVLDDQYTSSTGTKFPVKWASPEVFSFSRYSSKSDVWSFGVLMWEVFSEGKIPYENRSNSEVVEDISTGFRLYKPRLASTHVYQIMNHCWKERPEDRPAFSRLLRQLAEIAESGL
Chain of ABL1 (human) (P00519 whole entry, looked up): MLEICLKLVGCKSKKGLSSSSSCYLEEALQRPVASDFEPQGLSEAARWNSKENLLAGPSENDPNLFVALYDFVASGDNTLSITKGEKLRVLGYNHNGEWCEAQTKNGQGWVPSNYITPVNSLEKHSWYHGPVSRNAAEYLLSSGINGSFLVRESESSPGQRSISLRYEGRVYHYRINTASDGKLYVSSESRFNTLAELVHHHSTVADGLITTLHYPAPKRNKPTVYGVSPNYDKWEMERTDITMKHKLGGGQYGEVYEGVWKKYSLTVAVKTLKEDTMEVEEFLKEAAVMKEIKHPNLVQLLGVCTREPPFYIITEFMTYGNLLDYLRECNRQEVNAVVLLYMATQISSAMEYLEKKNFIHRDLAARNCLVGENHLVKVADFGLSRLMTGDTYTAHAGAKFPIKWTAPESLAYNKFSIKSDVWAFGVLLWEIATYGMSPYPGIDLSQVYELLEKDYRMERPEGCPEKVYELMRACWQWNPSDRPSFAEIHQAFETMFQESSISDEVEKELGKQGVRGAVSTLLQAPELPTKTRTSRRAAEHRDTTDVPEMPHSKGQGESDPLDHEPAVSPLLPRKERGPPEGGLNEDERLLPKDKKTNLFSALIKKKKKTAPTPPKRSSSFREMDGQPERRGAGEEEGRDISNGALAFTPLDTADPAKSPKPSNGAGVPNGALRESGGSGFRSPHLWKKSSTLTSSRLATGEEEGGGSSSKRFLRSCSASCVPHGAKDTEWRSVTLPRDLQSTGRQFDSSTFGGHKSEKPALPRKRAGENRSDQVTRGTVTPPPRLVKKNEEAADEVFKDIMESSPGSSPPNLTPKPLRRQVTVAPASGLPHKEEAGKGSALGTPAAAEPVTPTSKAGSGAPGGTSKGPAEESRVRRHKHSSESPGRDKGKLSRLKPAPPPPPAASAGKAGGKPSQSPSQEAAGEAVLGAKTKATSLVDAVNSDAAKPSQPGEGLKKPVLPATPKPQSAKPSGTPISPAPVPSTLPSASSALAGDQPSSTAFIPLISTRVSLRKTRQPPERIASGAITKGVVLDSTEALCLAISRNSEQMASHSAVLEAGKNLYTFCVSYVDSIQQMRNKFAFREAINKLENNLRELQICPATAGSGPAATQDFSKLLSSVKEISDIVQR
Chain of MAP4K4 (human) (O95819 whole entry, looked up): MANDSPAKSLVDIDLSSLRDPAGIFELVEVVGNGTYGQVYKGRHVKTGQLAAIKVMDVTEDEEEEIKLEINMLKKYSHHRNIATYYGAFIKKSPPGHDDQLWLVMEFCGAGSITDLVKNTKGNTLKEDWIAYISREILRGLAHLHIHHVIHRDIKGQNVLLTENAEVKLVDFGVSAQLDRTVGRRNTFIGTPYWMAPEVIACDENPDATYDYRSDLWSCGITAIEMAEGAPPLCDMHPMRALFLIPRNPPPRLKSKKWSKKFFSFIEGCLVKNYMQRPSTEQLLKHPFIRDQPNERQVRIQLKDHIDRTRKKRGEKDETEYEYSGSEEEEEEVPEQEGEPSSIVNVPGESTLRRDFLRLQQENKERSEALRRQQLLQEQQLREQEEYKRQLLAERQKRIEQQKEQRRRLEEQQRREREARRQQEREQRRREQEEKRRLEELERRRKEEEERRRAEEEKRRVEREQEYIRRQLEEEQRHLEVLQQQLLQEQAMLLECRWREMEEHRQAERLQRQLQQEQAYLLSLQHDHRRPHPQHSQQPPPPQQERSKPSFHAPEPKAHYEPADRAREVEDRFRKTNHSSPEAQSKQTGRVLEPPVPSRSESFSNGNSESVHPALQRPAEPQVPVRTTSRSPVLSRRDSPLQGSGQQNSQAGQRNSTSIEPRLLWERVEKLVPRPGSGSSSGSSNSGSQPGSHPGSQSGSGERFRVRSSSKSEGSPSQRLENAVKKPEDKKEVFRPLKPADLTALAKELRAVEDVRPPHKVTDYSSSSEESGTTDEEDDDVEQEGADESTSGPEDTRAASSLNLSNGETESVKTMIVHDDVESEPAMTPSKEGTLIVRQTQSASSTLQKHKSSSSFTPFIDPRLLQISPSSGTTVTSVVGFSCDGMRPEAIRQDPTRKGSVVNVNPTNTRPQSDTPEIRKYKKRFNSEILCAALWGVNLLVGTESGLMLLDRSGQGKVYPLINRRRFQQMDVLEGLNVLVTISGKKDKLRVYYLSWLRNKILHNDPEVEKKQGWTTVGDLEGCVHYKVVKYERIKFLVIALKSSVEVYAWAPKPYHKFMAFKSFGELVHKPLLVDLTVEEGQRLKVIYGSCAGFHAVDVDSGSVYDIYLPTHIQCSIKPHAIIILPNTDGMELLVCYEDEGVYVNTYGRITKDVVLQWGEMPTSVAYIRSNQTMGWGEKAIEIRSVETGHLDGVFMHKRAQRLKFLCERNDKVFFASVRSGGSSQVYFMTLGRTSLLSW
Chain of PNCK (human) (Q6P2M8 whole entry, looked up): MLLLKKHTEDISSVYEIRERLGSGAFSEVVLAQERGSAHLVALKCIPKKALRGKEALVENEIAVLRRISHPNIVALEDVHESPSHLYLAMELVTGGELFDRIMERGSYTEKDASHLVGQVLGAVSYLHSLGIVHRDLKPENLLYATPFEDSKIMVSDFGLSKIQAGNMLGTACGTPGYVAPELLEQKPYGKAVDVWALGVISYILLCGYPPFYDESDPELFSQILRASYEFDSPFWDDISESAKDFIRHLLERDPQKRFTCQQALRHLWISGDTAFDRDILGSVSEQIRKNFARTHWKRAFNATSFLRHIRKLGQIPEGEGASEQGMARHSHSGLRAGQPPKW
Chain of ULK2 (human) (Q8IYT8 whole entry, looked up): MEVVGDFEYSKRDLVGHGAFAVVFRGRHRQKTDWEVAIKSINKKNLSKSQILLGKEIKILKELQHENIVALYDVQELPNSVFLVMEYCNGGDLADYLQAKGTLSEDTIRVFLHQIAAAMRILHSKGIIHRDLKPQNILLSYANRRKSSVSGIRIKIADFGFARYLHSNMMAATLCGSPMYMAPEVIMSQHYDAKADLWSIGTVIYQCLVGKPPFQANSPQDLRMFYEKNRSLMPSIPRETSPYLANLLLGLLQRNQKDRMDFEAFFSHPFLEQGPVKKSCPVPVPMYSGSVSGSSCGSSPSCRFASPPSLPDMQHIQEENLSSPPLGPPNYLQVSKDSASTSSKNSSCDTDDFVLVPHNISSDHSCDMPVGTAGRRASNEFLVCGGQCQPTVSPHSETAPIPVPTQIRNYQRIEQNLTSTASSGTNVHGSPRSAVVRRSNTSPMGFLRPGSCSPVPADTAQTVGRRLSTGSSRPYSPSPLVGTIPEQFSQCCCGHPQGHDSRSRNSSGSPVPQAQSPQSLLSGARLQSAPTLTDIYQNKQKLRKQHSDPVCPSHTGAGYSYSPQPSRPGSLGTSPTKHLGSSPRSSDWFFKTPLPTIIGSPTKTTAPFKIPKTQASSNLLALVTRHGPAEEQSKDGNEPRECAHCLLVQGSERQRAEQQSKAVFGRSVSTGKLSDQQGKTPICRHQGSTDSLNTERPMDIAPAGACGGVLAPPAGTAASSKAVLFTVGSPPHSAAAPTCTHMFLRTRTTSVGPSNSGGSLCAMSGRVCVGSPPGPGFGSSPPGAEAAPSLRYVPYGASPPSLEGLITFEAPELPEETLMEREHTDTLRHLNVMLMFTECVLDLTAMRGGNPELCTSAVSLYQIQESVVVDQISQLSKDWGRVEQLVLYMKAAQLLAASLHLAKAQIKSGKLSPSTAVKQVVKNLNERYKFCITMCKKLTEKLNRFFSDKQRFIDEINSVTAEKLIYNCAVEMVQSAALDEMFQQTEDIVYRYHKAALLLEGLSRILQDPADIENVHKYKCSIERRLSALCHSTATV
Chain of STK3 (human) (Q13188 whole entry, looked up): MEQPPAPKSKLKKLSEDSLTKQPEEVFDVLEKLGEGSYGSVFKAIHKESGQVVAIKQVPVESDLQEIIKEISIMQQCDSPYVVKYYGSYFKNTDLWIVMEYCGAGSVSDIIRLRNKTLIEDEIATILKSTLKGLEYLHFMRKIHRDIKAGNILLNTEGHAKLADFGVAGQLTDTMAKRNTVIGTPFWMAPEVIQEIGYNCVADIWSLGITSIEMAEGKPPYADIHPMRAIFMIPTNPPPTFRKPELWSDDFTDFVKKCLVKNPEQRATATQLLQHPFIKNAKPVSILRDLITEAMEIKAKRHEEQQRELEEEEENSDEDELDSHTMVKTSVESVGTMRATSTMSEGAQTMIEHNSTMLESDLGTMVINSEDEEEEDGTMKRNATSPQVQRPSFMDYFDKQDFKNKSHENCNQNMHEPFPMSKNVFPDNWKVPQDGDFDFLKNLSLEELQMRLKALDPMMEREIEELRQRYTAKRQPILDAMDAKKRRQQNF

Oc1cccc(-c2nc(N3CCOCC3)c3oc4ncccc4c3n2)c1 showed a residual activity (EPHA5 (human)) of 102%, a residual activity (MARK3 (human)) of 97.4% and a residual activity (CDK4 CCND3 (human)) of 92.5%. The residual activity (PRKCI (human)) was 94.9%, the residual activity (MAP3K10 (human)) was 92% and the residual activity (CDK5 CDK5R1 p35 (human)) was 101%. The residual activity (PASK (human)) was 83.8%, the residual activity (AURKB (human)) was 99.4% and the residual activity (RPS6KB2 (human)) was 95.8%. The residual activity (GSK3B (human)) was 94.8%, the residual activity (TSSK1B (human)) was 93.4% and the residual activity (MAP3K11 (human)) was 96.5%. It also gave a residual activity (CSNK2A2 (human)) of 56.2%, a residual activity (STK3 (human)) of 105% and a residual activity (CAMK1D (human)) of 121%. It also gave a residual activity (MAPKAPK2 (human)) of 97.8%, a residual activity (MAPK10 (human)) of 102% and a residual activity (RPS6KA4 KD2 (human)) of 104%. It also gave a residual activity (TEC (human)) of 113%, a residual activity (ROS1 (human)) of 93.1% and a residual activity (CLK1 (human)) of 85.2%. The residual activity (MAP3K2 (human)) was 103%, the residual activity (PRKCG (human)) was 102% and the residual activity (PRKCZ (human)) was 99.1%. It also gave a residual activity (PHKG2 (human)) of 99.1%, a residual activity (EGFR (human)) of 83.8% and a residual activity (MAP4K4 (human)) of 91.4%. It also gave a residual activity (STK25 (human)) of 93.4%, a residual activity (ABL1 (human)) of 94.4% and a residual activity (EPHA7 (human)) of 93.9%. It also gave a residual activity (MAP3K8 (human)) of 99.2%, a residual activity (MAP3K9 (human)) of 103% and a residual activity (ULK2 (human)) of 106%. For the same compound, the residual activity (MAP2K2 (human)) was 85%, the residual activity (EPHB2 (human)) was 88.6% and the residual activity (HIPK4 (human)) was 107%. It also gave a residual activity (LTK (human)) of 97.6%, a residual activity (TAOK2 (human)) of 92.2% and a residual activity (ITK (human)) of 93.1%. It also gave a residual activity (PNCK (human)) of 96.7% and a residual activity (PKN2 (human)) of 87.6%.
O=C1Nc2ccc(Cl)cc2/C1=C/c1cc(Cl)c(O)c(Cl)c1 was tested, and the residual activity (EPHA5 (human)) was 99.4%, the residual activity (MARK3 (human)) was 81.1% and the residual activity (CDK4 CCND3 (human)) was 94.8%. It also gave a residual activity (PRKCI (human)) of 94.1%, a residual activity (MAP3K10 (human)) of 86.8% and a residual activity (CDK5 CDK5R1 p35 (human)) of 94.5%. It also gave a residual activity (PASK (human)) of 70%, a residual activity (AURKB (human)) of 9.19% and a residual activity (RPS6KB2 (human)) of 98.2%. For the same compound, the residual activity (GSK3B (human)) was 80.8%, the residual activity (TSSK1B (human)) was 88.2% and the residual activity (MAP3K11 (human)) was 60.4%. It also gave a residual activity (CSNK2A2 (human)) of 33.3%, a residual activity (STK3 (human)) of 31.6% and a residual activity (CAMK1D (human)) of 104%. It also gave a residual activity (MAPKAPK2 (human)) of 100%, a residual activity (MAPK10 (human)) of 98.8% and a residual activity (RPS6KA4 KD2 (human)) of 98%. It also gave a residual activity (ACVR1B (human)) of 127%, a residual activity (TEC (human)) of 109% and a residual activity (ROS1 (human)) of 89.7%. It also gave a residual activity (CLK1 (human)) of 85%, a residual activity (MAP3K2 (human)) of 95.7% and a residual activity (PRKCZ (human)) of 95.3%. The residual activity (PHKG2 (human)) was 98.4%, the residual activity (EGFR (human)) was 93.5% and the residual activity (MAP4K4 (human)) was 4.48%. For the same compound, the residual activity (STK25 (human)) was 94%, the residual activity (ABL1 (human)) was 84% and the residual activity (EPHA7 (human)) was 97.5%. The residual activity (MAP3K8 (human)) was 93.1%, the residual activity (MAP3K9 (human)) was 102% and the residual activity (ULK2 (human)) was 101%. For the same compound, the residual activity (MAP2K2 (human)) was 82%, the residual activity (EPHB2 (human)) was 90.9% and the residual activity (HIPK4 (human)) was 88.4%. It also gave a residual activity (LTK (human)) of 36.9%, a residual activity (TAOK2 (human)) of 81.3% and a residual activity (ITK (human)) of 91.8%. For the same compound, the residual activity (PNCK (human)) was 94.2% and the residual activity (PKN2 (human)) was 114%.
